Where two headings read alike, the source gives them in different places. One block for each compound: values may come before it.
Key:
DLD-1 BRCA2−/− cells = assay: Homologous recombination synthetic lethal inhibition of proliferation, DLD-1 BRCA2-/- (Cell Titre Glo 3D); format: cell-based; conditions: for IC50: Homo sapiens
Method in brief: (§1)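 Cells are seeded in RPMI 1640 (phenol red free, 10% FBS, GlutaMAX) onto pre-dosed compound (10 μM to 0.51 nM, three-fold). Plates are incubated at 37 °C, and medium plus compound are refreshed on day 6. Viability is read by CellTiter-Glo 3D at day 7 (DLD-1) or day 12 (DLD-1 BRCA2−/−), and the IC50 is fitted.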

DLD-1 cells = assay: Inhibition of proliferation, DLD-1 BRCA2 wt control (Cell Titre Glo 3D); format: cell-based; conditions: for IC50: Homo sapiens
Method in brief: as §1

[1] = DLD-1, first proliferation column (c5), taken as DLD-1 BRCA2-/-, read-out: POLQ PD Prolif Lumin (converted)
[2] = DLD-1, second proliferation column (c6), taken as DLD-1 BRCA2 wt, read-out: POLQ PD Prolif Lumin (converted)
[3] = DLD-1, 288 h, DLD-1 BRCA2−/− cells, 12 days, read-out: POLQ PD Prolif Lumin BRCA2 −/− mean pIC50 (converted)
[4] = DLD-1, 168 h, DLD-1 BRCA2 wt cells, 7 days, read-out: POLQ PD Prolif Lumin DLD1 mean pIC50 (converted)
[5] = DLD-1, 288 h, DLD-1 BRCA2−/−, 12 days, Cell Titre Glo 3D, read-out: POLQ PD Prolif Lumin BRCA2 −/− Mean pIC50 (converted)
[6] = DLD-1, 168 h, DLD-1 (BRCA2 wt control), 7 days, Cell Titre Glo 3D, read-out: POLQ PD Prolif Lumin DLD1 Mean pIC50 (converted)
[7] = DLD-1, DLD-1 BRCA2-/- proliferation, column head only partly shown, read-out: POLQ PD Prolif Lumin (converted)
[8] = DLD-1, DLD-1 BRCA2 wt control proliferation, column head only partly shown, read-out: POLQ PD Prolif Lumin (converted)
[9] = DLD-1, DLD-1 BRCA2 −/−, mean, read-out: POLQ PD Prolif Lumin BRCA2 −/− mean pIC50 (converted)
[10] = DLD-1, DLD1 BRCA2 wt, mean, read-out: POLQ PD Prolif Lumin DLD1 mean pIC50 (converted)
[11] = DLD-1, first proliferation column (c5), DLD-1 BRCA2-/-, read-out: POLQ PD Prolif Lumin (converted)
[12] = DLD-1, second proliferation column (c6), DLD-1 BRCA2 wt control, read-out: POLQ PD Prolif Lumin (converted)
[13] = DLD-1, proliferation, luminescence, taken as DLD-1 BRCA2-/-, read-out: POLQ PD Prolif Lumin (converted)
[14] = DLD-1, proliferation, luminescence, second Prolif column (c6), taken as DLD-1 BRCA2 wt control, read-out: POLQ PD Prolif Lumin (converted)

IC50 (DLD-1 cells; DLD-1, DLD1 BRCA2 wt cells, mean, read-out: POLQ PD Prolif Lumin DLD1 mean PIC50 (converted)): > 10000 nM
SMILES: CC(=O)Nc1ccc(-c2nc3c(OC4(C)CC4)ncnc3n2Cc2cc(C)ccn2)c(Cl)c1 [Example T53, N-(3-chloro-4-(6-(1-methylcyclopropoxy)-9-((4-methylpyridin-2-yl)methyl)-9H-purin-8-yl)phenyl)acetamide]
IC50 (DLD-1 BRCA2−/− cells; DLD-1, DLD-1 BRCA2 −/− cells, mean, read-out: POLQ PD Prolif Lumin BRCA2 −/− mean pIC50 (converted)): 316 nM

IC50 (DLD-1 cells; [2]): > 10000 nM
SMILES: Cc1ccnc(Cn2c(-c3ccc(CC(=O)NC(C)C)cc3Cl)nc3c(OC4(C)CC4)ncnc32)c1 [Example T357, 2-(3-chloro-4-(6-(1-methylcyclopropoxy)-9-((4-methylpyridin-2-yl)methyl)-9H-purin-8-yl)phenyl)-N-isopropylacetamide]
IC50 (DLD-1 BRCA2−/− cells; [1]): 398 nM

IC50 (DLD-1 cells; [4]): > 10000 nM
SMILES: CC1(Oc2ncnc3c2nc(-c2ccc(OCCCN4CCNCC4=O)cc2Cl)n3Cc2ccccc2)CC1 [Example S1, 1-(3-(4-(9-benzyl-6-(1-methylcyclopropoxy)-9H-purin-8-yl)-3-chlorophenoxy)propyl)piperazin-2-one]
IC50 (DLD-1 BRCA2−/− cells; [3]): 39.8 nM

IC50 (DLD-1 cells; [6]): > 10000 nM
SMILES: C[C@H](CCOc1ccc(-c2nc3c(OC4(C)CC4)ncnc3n2Cc2cccc(Cl)c2)c(Cl)c1)C(=O)O (single isomer, unassigned; isomer 1) [Example 34, 4-(3-Chloro-4-(9-(3-chlorobenzyl)-6-(1-methylcyclopropoxy)-9H-purin-8-yl)phenoxy)-2-methylbutanoic acid (Isomer 1)]
IC50 (DLD-1 BRCA2−/− cells; [5]): 200 nM

IC50 (DLD-1 cells; [4]): 6310 nM
SMILES: CC1(Oc2ncnc3c2nc(-c2ccc(O[C@@H]4CCCNC4)cc2Cl)n3Cc2ccccc2)CC1 [Example D32, (R)-9-benzyl-8-(2-chloro-4-(piperidin-3-yloxy)phenyl)-6-(1-methylcyclopropoxy)-9H-purine]
IC50 (DLD-1 BRCA2−/− cells; [3]): 126 nM

SMILES: CC(COc1ccc(-c2nc3c(OC4(C)CC4)ncnc3n2Cc2cccc(Cl)c2)c(Cl)c1)CC(=O)O (single isomer, unassigned) [Example T295, 4-(3-chloro-4-(9-(3-chlorobenzyl)-6-(1-methylcyclopropoxy)-9H-purin-8-yl)phenoxy)-3-methylbutanoic acid]
POLQ PD Prolif Lumin (DLD-1 BRCA2−/− cells; DLD-1 BRCA2-/- proliferation, column head only partly shown): 6.9 | POLQ PD Prolif Lumin (DLD-1 cells; DLD-1 BRCA2 wt control proliferation, column head only partly shown): <5.0

IC50 (DLD-1 cells; [6]): > 10000 nM
SMILES: Cc1ccnc(Cn2c(-c3ccc(OCCO)cc3Cl)nc3c(OC4(C)CC4)ncnc32)c1 [Example 33, 2-(3-Chloro-4-(6-(1-methylcyclopropoxy)-9-((4-methylpyridin-2-yl)methyl)-9H-purin-8-yl)phenoxy)ethan-1-ol]
IC50 (DLD-1 BRCA2−/− cells; [5]): 126 nM

IC50 (DLD-1 cells; [4]): 3160 nM
SMILES: CC1(Oc2ncnc3c2nc(-c2cccc(OC4CCNCC4)c2Cl)n3Cc2ccccc2)CC1 [Example D11, 9-benzyl-8-(2-chloro-3-(piperidin-4-yloxy)phenyl)-6-(1-methylcyclopropoxy)-9H-purine]
IC50 (DLD-1 BRCA2−/− cells; [3]): 251 nM

IC50 (DLD-1 cells; [8]): > 10000 nM
SMILES: C[C@@H](CCOc1cccc(-c2nc3c(OC4(C)CC4)ncnc3n2Cc2cccc(Cl)c2)c1Cl)C(=O)O [Example T296, (S)-4-(2-chloro-3-(9-(3-chlorobenzyl)-6-(1-methylcyclopropoxy)-9H-purin-8-yl)phenoxy)-2-methylbutanoic acid]
IC50 (DLD-1 BRCA2−/− cells; [7]): 25.1 nM

IC50 (DLD-1 cells; [10]): > 10000 nM
SMILES: COc1ccc(F)cc1Cn1c(-c2cccc(OCC(C)CC(=O)O)c2Cl)nc2c(OC3(C)CC3)ncnc21 (single isomer, unassigned) [Example U77, 4-(2-chloro-3-(9-(5-fluoro-2-methoxybenzyl)-6-(1-methylcyclopropoxy)-9H-purin-8-yl)phenoxy)-3-methylbutanoic acid]
IC50 (DLD-1 BRCA2−/− cells; [9]): 7.94 nM

IC50 (DLD-1 cells; [4]): 6310 nM
SMILES: CC1(Oc2ncnc3c2nc(-c2ccc(OCCN4CCN[C@@H](CO)C4)cc2Cl)n3Cc2ccccc2)CC1 [Example R18, (R)-(4-(2-(4-(9-benzyl-6-(1-methylcyclopropoxy)-9H-purin-8-yl)-3-chlorophenoxy)ethyl)piperazin-2-yl)methanol]
IC50 (DLD-1 BRCA2−/− cells; [3]): 126 nM

IC50 (DLD-1 cells; [4]): 1580 nM
SMILES: Cc1cc(OCCCN)ncc1-c1nc2c(OC3(C)CC3)ncnc2n1Cc1ccccc1 [Example G9, 3-((5-(9-benzyl-6-(1-methylcyclopropoxy)-9H-purin-8-yl)-4-methylpyridin-2-yl)oxy)propan-1-amine]
IC50 (DLD-1 BRCA2−/− cells; [3]): 794 nM

IC50 (DLD-1 cells; [4]): > 10000 nM
SMILES: COc1ncccc1-c1nc2c(OC3(C)CC3)ncnc2n1Cc1ccccc1 [Example N9, 9-benzyl-8-(2-methoxypyridin-3-yl)-6-(1-methylcyclopropoxy)-9H-purine]
IC50 (DLD-1 BRCA2−/− cells; [3]): 1260 nM

IC50 (DLD-1 cells; [2]): > 10000 nM
SMILES: Cc1cnc(Cn2c(-c3ccc(OC4CCCN(C)CC4)cc3Cl)nc3c(OC4(C)CC4)ncnc32)s1 (single isomer, unassigned) [Example T389, 2-((8-(2-chloro-4-((1-methylazepan-4-yl)oxy)phenyl)-6-(1-methylcyclopropoxy)-9H-purin-9-yl)methyl)-5-methylthiazole]
IC50 (DLD-1 BRCA2−/− cells; [1]): 316 nM

IC50 (DLD-1 cells; [12]): > 10000 nM
SMILES: Cc1ccnc(Cn2c(-c3ccc(OCCN4CCNCC4)cc3Cl)nc3c(OC4(C)CC4)ncnc32)c1F [Example T504, 8-(2-chloro-4-(2-(piperazin-1-yl)ethoxy)phenyl)-9-((3-fluoro-4-methylpyridin-2-yl)methyl)-6-(1-methylcyclopropoxy)-9H-purine]
IC50 (DLD-1 BRCA2−/− cells; [11]): 2000 nM

IC50 (DLD-1 cells; [4]): 1260 nM
SMILES: CN1CCCC1CCOc1ccc(-c2nc3c(OC4(C)CC4)ncnc3n2Cc2ccccc2)c(Cl)c1 (racemic) [Example D2, 9-benzyl-8-(2-chloro-4-(2-(1-methylpyrrolidin-2-yl)ethoxy)phenyl)-6-(1-methylcyclopropoxy)-9H-purine]
IC50 (DLD-1 BRCA2−/− cells; [3]): 15.8 nM

IC50 (DLD-1 cells; [10]): > 10000 nM
SMILES: C[C@@H](CCOc1cccc(-c2nc3c(OC4(C)CC4)ncnc3n2Cc2cc(Cl)ccc2C#N)c1Cl)C(=O)O [Example U87, (S)-4-(2-chloro-3-(9-(5-chloro-2-cyanobenzyl)-6-(1-methylcyclopropoxy)-9H-purin-8-yl)phenoxy)-2-methylbutanoic acid]
IC50 (DLD-1 BRCA2−/− cells; [9]): 15.8 nM

IC50 (DLD-1 cells; [8]): > 10000 nM
SMILES: CC(COc1ccc(-c2nc3c(OC4(C)CC4)ncnc3n2Cc2cccc(Cl)c2)c(Cl)c1)CC(=O)O (single isomer, unassigned) [Example T294, 4-(3-chloro-4-(9-(3-chlorobenzyl)-6-(1-methylcyclopropoxy)-9H-purin-8-yl)phenoxy)-3-methylbutanoic acid]
IC50 (DLD-1 BRCA2−/− cells; [7]): 158 nM

IC50 (DLD-1 cells; [4]): 501 nM
SMILES: CC(C)Oc1ccc2c(c1)nc(-c1ccc(OCCC3CCCN3C)cc1Cl)n2Cc1ccccc1 (single isomer, unassigned) [Example A8, 1-benzyl-2-(2-chloro-4-(2-(1-methylpyrrolidin-2-yl)ethoxy)phenyl)-5-isopropoxy-1H-benzo[d]imidazole]
IC50 (DLD-1 BRCA2−/− cells; [3]): 126 nM

IC50 (DLD-1 cells; [4]): 5010 nM
SMILES: CN1CCN(CCOc2cccc(-c3nc4c(OC5(C)CC5)ncnc4n3Cc3ccccc3)c2Cl)CC1 [Example D12, 9-benzyl-8-(2-chloro-3-(2-(4-methylpiperazin-1-yl)ethoxy)phenyl)-6-(1-methylcyclopropoxy)-9H-purine]
IC50 (DLD-1 BRCA2−/− cells; [3]): 50.1 nM

IC50 (DLD-1 cells; [6]): > 10000 nM
SMILES: CC1(Oc2ncnc3c2nc(-c2ccc(/C=C/C(=O)O)cc2Cl)n3Cc2cccc(Cl)c2)CC1 [Example 31, (E)-3-(3-Chloro-4-(9-(3-chlorobenzyl)-6-(1-methylcyclopropoxy)-9H-purin-8-yl)phenyl)acrylic acid]
IC50 (DLD-1 BRCA2−/− cells; [5]): 398 nM

IC50 (DLD-1 cells; [14]): > 10000 nM
SMILES: CC1(Oc2ncnc3c2nc(-c2ccc(OCCOCCOCC(=O)O)cc2Cl)n3Cc2cccc(Cl)c2)CC1 [Example T451, 2-(2-(2-(3-chloro-4-(9-(3-chlorobenzyl)-6-(1-methylcyclopropoxy)-9H-purin-8-yl)phenoxy)ethoxy)ethoxy)acetic acid]
IC50 (DLD-1 BRCA2−/− cells; [13]): 501 nM

IC50 (DLD-1 cells; [14]): > 10000 nM
SMILES: Cc1ccnc(Cn2c(-c3ccc(OC4CN(C(=O)[C@@H](C)O)C4)cc3Cl)nc3c(OC4(C)CC4)ncnc32)c1 [Example T482, (R)-1-(3-(3-chloro-4-(6-(1-methylcyclopropoxy)-9-((4-methylpyridin-2-yl)methyl)-9H-purin-8-yl)phenoxy)azetidin-1-yl)-2-hydroxypropan-1-one]
IC50 (DLD-1 BRCA2−/− cells; [13]): 316 nM

IC50 (DLD-1 cells; [12]): > 10000 nM
SMILES: Cc1ccnc(Cn2c(-c3ccc(CC(=O)N4C[C@@H]5C[C@H]4CN5)cc3Cl)nc3c(OC4(C)CC4)ncnc32)c1 [Example T559, 1-((1S,4S)-2,5-diazabicyclo[2.2.1]heptan-2-yl)-2-(3-chloro-4-(6-(1-methylcyclopropoxy)-9-((4-methylpyridin-2-yl)methyl)-9H-purin-8-yl)phenyl)ethan-1-one]
IC50 (DLD-1 BRCA2−/− cells; [11]): > 6310 nM

From patent publication US20250195530A1, “POLQ INHIBITORS” (ASTRAZENECA AB, priority 2022, published 2025)
